Results on six molecules are retold here after patent US20070259948A1, “Compounds with antifungal properties and process thereof” (priority 2006, published 2007).

In brackets after ≈: the same amount, converted by molar mass.

Assay in all cases: Antifungal susceptibility testing (minimum inhibitory concentration), soyabean casein digest broth
Holding throughout (type): cell-based

For experiment [1], the system named is C. albicans. The settings on record: Candida albicans; end points after 48 hours, visually / spectrophotometer; NI till x = no inhibition up to x; read-out: Activity against organisms In μg/ml, C. albicans (minimum inhibitory concentration). Here is the method: (§1) In vitro evaluation of antifungal activity can be performed by determining the minimum inhibitory concentration. Anti-fungal susceptibility testing of these anti-fungal compounds was done by conventional method using soyabean casein digest broth. Known anti-fungal agents like Fluconazole and amphotericin-B were used as positive control. End points were determined after 48 hours visually and by using Spectrophotometer wherever necessary. Different dilutions were tried and the set of experiments.

Experiment [2] deals with F. proliferatum. The conditions noted are these: Fusarium proliferatum; end points after 48 hours, visually / spectrophotometer; NI till x = no inhibition up to x; read-out: Activity against organisms In μg/ml, F. proliferatum (minimum inhibitory concentration). Here is the method:
as §1

Experiment [3] has as its system A. niger. The settings on record: Aspergillus niger; end points after 48 hours, visually / spectrophotometer; NI till x = no inhibition up to x; read-out: Activity against organisms In μg/ml, A. niger (minimum inhibitory concentration). Here is the method: as §1

`O=C1OC(COC(=O)c2ccc[nH]2)C=C1c1cccc(Cl)c1` (stereo not drawn) [1KB, 4-(3-chlorophenyl)-5-oxo-2,5-dihydrofuran-2-ylmethyl pyrrole-2-carboxylate]: the MIC fell in the range of 0.5 to 1 µg/mL (≈ 1.57 to 3.15 µM) in experiment [1], 1 to 2 µg/mL (≈ 3.15 to 6.29 µM) in experiment [2] and 1 to 2 µg/mL (≈ 3.15 to 6.29 µM) in experiment [3].

Turning to `COc1ccc(C2=CC(COC(=O)CCCl)OC2=O)cc1Br` (stereo not drawn) [1GE, 4-(3-bromo-4-methoxyphenyl)-5-oxo-2,5-dihydrofuran-2-ylmethyl 3-chloropropionate], the results for the MIC in experiment [1], in experiment [2] and in experiment [3] were 4 to 8 µg/mL (≈ 10.3 to 20.5 µM), 8 to 16 µg/mL (≈ 20.5 to 41.1 µM) and 4 to 8 µg/mL (≈ 10.3 to 20.5 µM), respectively.

For the molecule `O=C1OC(COC(=O)c2cccs2)C=C1c1ccc(Cl)c(Cl)c1` (stereo not drawn) [1DA, 4-(3,4-dichlorophenyl)-5-oxo-2,5-dihydrofuran-2-ylmethyl thiophene-2-carboxylate], the MIC in experiment [1] amounted to 2 µg/mL (≈ 5.42 µM); in experiment [2] it was 2 µg/mL (≈ 5.42 µM); in experiment [3] it was 1 µg/mL (≈ 2.71 µM).

Regarding `O=C(CCCCl)OCC1C=C(c2ccc(Cl)c(Cl)c2)C(=O)O1` (stereo not drawn) [1HA, 4-(3,4-dichlorophenyl)-5-oxo-2,5-dihydrofuran-2-ylmethyl 4-chlorobutyrate], the MIC in experiment [1], in experiment [2] and in experiment [3] was 1 to 2 µg/mL (≈ 2.75 to 5.5 µM) throughout.

Turning to `O=C1OC(COC(=O)c2ccsc2)C=C1c1cccc(Cl)c1` (stereo not drawn) [1EB, 4-(3-chlorophenyl)-5-oxo-2,5-dihydrofuran-2-ylmethyl thiophene-3-carboxylate], the results for the MIC in experiment [1], in experiment [2] and in experiment [3] were 4 µg/mL (≈ 11.9 µM), 2 µg/mL (≈ 5.97 µM) and 4 µg/mL (≈ 11.9 µM), respectively.

Take `O=C1OC(COC(=O)c2ccsc2)C=C1c1cccc(Br)c1` (stereo not drawn) [1EC, 4-(3-bromophenyl)-5-oxo-2,5-dihydrofuran-2-ylmethyl thiophene-3-carboxylate]: the MIC in experiment [1] came out at 2 µg/mL (≈ 5.27 µM); in experiment [2], 1 µg/mL (≈ 2.64 µM); in experiment [3], 2 µg/mL (≈ 5.27 µM).
